Activity calls are given as the source filed them.
Tests used:
[1] = target: T1, Corticotropin-releasing factor receptor 2/Corticotropin-releasing factor-binding protein (Homo sapiens, UniProt P24387+Q13324); experiment: Dose Response confirmation of uHTS hits for small molecule antagonists of the CRF-binding protein and CRF-R2 receptor complex.; type: functional; details: read-out: IC50_Mean
T1 sequence (Q13324 whole entry): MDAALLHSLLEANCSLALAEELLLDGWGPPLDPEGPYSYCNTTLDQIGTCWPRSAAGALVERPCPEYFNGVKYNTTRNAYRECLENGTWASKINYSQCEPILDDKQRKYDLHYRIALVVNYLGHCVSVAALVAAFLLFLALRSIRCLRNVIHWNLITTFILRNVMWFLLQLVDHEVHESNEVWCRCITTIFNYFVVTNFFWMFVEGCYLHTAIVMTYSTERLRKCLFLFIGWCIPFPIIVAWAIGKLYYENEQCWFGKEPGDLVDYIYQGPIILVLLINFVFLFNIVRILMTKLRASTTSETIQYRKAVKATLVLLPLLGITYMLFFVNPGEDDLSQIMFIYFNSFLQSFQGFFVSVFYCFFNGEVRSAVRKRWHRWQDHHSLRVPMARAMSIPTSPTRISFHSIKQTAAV
T1 sequence (P24387 whole entry): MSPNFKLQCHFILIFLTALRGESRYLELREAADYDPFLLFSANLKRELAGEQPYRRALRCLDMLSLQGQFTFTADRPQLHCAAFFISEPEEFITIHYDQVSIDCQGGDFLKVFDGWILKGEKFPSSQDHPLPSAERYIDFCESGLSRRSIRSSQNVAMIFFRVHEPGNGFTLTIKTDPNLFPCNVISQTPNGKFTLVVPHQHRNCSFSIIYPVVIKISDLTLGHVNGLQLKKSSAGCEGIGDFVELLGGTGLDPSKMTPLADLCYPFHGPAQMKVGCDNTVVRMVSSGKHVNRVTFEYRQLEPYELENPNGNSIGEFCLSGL

[2] = target: T1, Corticotropin-releasing factor receptor 2/Corticotropin-releasing factor-binding protein; experiment: activators of CRF receptor 2 with binding protein – uHTS hits, confirmation (AID 602473); type: functional; details: read-out: EC50_Mean
[3] = target: T2, Heat shock factor protein 1 (Mus musculus, UniProt P38532); experiment: enhancement of HSF1-driven luciferase signal – cell-based, NIH3T3, luminescence, dose retest, confirmation (AID 435004); type: functional;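 further: stress induced by proteasome inhibitor MG132 added 30 min after compound; luciferase reporter driven by HSF1 response element in NIH3T3 cells; actives raise luminescence as potentiators of the MG132 stress response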
T2 sequence (P38532 whole entry): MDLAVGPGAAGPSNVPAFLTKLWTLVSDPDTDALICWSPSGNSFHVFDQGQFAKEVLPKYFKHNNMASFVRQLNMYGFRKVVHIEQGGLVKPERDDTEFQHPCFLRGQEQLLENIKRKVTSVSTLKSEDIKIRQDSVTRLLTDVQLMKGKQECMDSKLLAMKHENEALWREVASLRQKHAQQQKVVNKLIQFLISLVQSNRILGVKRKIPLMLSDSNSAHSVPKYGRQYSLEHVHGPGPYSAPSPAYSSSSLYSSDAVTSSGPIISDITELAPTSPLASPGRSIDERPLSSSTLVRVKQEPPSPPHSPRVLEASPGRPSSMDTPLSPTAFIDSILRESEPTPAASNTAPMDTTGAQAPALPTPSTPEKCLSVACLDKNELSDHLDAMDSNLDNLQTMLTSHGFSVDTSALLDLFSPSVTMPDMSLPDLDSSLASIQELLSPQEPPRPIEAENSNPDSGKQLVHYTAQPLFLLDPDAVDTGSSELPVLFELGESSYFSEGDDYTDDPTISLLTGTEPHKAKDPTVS

H9c2 = experiment: cells; type: functional, cell-based; details: Rattus norvegicus, H9c2, Myocardium;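 further: confirmatory concentration-response retest of ultra-high-throughput screening hits for modulation of myocardial damage; cell death induced by hydrogen peroxide oxidative stress; compound pretreatment for 60 min then peroxide exposure for 2 h; potency is for protecting the cells against peroxide damage rather than for killing them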
Cytochrome P450 2C19 = Cytochrome P450 2C19 (Homo sapiens, UniProt P33261); experiment: Cytochrome panel assay with activity outcomes. Panel member name: p450-cyp2c19 Compounds with AC50 equal or less than 10 uM are considered active; type: functional; details: read-out: AC50
Cytochrome P450 2C19, sequence (P33261 whole entry): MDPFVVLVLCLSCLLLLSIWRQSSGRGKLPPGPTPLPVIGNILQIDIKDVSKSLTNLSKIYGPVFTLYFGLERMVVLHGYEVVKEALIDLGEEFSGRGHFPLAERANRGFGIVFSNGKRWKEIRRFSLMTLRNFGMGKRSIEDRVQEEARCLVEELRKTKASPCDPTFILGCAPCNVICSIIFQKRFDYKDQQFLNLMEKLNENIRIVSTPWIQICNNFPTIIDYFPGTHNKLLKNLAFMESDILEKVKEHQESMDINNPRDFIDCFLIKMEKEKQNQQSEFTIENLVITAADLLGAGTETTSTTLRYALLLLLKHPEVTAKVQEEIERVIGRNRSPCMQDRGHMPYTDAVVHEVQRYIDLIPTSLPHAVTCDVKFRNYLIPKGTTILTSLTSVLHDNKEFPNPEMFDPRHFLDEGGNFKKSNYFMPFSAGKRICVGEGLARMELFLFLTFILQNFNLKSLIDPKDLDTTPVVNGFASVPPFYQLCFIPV

[4] = target: T3, Replicative DNA helicase DnaB (Mycobacterium tuberculosis, UniProt P9WMR3); experiment: DnaB intein splicing inhibitors, dose response, biochemical, cell-free fluorescence (AID 449749); type: functional
T3 sequence (P9WMR3 whole entry): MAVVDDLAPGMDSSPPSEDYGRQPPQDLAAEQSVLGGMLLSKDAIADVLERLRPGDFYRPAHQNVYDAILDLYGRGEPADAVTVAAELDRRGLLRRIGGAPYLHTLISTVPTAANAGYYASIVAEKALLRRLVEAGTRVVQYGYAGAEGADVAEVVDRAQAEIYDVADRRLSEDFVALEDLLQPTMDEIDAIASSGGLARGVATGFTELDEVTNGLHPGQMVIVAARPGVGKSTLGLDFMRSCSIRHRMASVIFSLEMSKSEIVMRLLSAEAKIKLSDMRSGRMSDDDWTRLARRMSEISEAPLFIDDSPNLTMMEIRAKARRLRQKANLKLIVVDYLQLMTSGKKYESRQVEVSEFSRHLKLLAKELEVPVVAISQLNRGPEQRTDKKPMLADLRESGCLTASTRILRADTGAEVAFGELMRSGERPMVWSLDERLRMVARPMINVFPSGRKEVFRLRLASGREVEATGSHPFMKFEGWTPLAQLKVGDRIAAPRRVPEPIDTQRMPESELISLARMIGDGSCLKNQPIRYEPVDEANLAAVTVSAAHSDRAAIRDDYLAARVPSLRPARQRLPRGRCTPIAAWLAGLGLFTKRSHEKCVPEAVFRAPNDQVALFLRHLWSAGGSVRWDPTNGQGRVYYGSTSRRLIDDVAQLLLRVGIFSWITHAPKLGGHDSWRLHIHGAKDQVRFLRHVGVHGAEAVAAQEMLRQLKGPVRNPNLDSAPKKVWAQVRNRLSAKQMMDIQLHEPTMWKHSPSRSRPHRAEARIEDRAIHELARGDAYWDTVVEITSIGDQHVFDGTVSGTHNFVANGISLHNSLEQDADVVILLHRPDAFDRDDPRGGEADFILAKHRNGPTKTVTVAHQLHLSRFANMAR

Protein RecA = target: T4, Protein RecA (Mycobacterium tuberculosis, UniProt P9WHJ3); experiment: Fluorescence Cell-Free Homogeneous Dose Retest to Identify Inhibitors of RecA-Intein Splicing Activity. [Related pubchem assays (depositor defined):AID2097, AID2223, AID489010, AID492950]; type: functional
T4 sequence (P9WHJ3 whole entry): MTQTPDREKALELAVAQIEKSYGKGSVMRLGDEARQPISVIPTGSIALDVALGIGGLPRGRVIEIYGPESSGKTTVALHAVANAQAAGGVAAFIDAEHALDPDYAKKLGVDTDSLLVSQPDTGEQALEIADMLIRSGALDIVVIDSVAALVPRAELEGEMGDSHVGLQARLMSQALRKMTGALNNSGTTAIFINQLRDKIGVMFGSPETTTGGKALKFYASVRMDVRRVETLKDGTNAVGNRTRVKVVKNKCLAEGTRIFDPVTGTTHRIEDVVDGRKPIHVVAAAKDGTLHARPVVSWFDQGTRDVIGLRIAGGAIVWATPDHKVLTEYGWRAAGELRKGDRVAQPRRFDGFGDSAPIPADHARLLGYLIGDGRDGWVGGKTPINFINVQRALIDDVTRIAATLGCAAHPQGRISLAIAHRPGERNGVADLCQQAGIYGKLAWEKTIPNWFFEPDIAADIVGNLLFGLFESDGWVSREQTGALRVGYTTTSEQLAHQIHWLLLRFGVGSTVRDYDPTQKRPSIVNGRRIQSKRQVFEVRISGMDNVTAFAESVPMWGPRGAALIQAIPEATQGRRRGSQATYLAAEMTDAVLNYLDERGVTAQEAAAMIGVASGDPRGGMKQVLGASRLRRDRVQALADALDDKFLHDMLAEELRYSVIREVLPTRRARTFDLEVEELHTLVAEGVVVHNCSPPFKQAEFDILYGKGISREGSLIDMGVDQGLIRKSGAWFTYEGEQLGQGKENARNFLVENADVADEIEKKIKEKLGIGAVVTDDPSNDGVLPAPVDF

Cytochrome P450 2C9 = Cytochrome P450 2C9 (Homo sapiens, UniProt P11712)
Cytochrome P450 2C9, sequence (P11712 whole entry): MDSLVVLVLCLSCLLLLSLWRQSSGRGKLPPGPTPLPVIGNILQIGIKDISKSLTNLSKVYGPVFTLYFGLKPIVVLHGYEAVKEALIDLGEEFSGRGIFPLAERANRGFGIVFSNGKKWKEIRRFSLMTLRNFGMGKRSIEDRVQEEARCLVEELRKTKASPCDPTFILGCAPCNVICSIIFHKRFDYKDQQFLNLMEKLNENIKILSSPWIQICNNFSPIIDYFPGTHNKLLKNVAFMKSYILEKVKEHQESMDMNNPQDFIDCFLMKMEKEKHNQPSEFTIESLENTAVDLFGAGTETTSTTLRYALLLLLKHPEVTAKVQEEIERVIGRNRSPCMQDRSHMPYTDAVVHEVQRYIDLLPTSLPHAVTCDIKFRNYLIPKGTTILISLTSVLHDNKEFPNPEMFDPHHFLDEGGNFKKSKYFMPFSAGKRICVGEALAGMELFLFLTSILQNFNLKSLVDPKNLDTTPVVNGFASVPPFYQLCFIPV

[5] = Luminescence Cell-Based Dose Confirmation HTS to Identify Activators of 5'UTR Stem-Loop Driven Alpha-Synuclein mRNA Translation in H4 Neuroglioblastoma Cells. [Related pubchem assays: 1829 (Project Summary), 1814 (Primary HTS)]; type: functional
[6] = Luminescence Cell-Based Dose Response HTS to Identify Activators of Luciferase Translation or Activity in H4 […] Cells. [Related pubchem assays: 1829 (Project Summary), 1814 (Primary HTS)]; type: functional
H4 = experiment: Luminescence Cell-Based Dose Response HTS to Identify Activators of 5'UTR Stem-Loop Driven Prion Protein mRNA Translation in H4 Neuroglioblastoma Cells. [Related pubchem assays: 1829 (Project Summary), 1814 (Primary HTS)]; type: functional; details: Homo sapiens
[7] = Luminescence Cell-Based Dose Retest to Confirm Inhibitors of Cancer Stem Cells. [Related pubchem assays (depositor defined):AID2717, AID2721]; type: functional; details: Homo sapiens

With `COC(=O)c1ccc(Cc2ccccc2)o1` the IC50 [1] was > 47.1 µM (inactive) and the EC50 [2] was > 53 µM (inactive).

For `CCOC(=O)c1nnn(CC(=O)N2N=C(c3ccccc3)CC2c2ccccc2)c1C(=O)OCC` (configuration not stated), the IC50 [1] was > 47.1 µM (inactive) and the EC50 [2] was > 53 µM (inactive).

With `Oc1nc(N2CCN(c3ccccc3)CC2)nc2c1CCC2` the EC50 [3] was > 260 µM (inactive) and the IC50 (H9c2) was 54.4 µM (inactive).

In the case of `O=[N+]([O-])C(/C=C(\Cl)[N+](=O)[O-])=C1N(Cc2ccc(Cl)nc2)CCN1Cc1ccc(Cl)nc1`, the AC50 (Cytochrome P450 2C19) is reported as 31.6 µM (inconclusive), the AC50 [4] is reported as 11.4 µM (active) and the EC50 (Protein RecA) is reported as 8.49 µM (active). For the same compound, the AC50 (Cytochrome P450 2C9) was 12.6 µM (inconclusive).

With `COc1ccc(S(=O)(=O)N(CCCN2CCCC2=O)Cc2cc3cc(C)c(C)cc3nc2O)cc1` the IC50 (H9c2) was > 79 µM (inactive).

In the case of `COCCn1c(-c2ccsc2)nc2c1c(=O)[nH]c(=O)n2CC(C)C`, the IC50 [1] is reported as > 47.1 µM (inactive) and the EC50 [2] is reported as > 53 µM (inactive).

For `O=C(O)c1nn(CC(=O)N2CCN(c3ccccc3)CC2)c(=O)c2ccccc12`, the IC50 (H9c2) was 31 µM (inactive).

For `COc1ccc(OCc2cc(C(=O)N3CCCC(OC)C3)no2)c2ccccc12` (configuration not stated), the AC50 [4] was 15 µM (active) and the EC50 (Protein RecA) was 3.9 µM (active).

For `CC(=O)c1c(C)[nH]c(C(=O)CSc2ccc(F)cc2)c1C`, the EC50 [5] was 20 µM (active), the EC50 [6] was 30.2 µM (active) and the EC50 (H4) was 71.1 µM (active).

With `Cc1nn(-c2ccc(N3CCCCC3)nn2)c(C)c1CCC(=O)Nc1cccc(F)c1` the EC50 [5] was 20.8 µM (active) and the EC50 [6] was 2.66 µM (active).

In the case of `O=C(Oc1ccccc1N1C(=O)CCC1=O)c1ccco1`, the AC50 [4] is reported as 6.7 µM (active) and the EC50 (Protein RecA) is reported as 14.8 µM (active).

With `CCOC(=O)c1c(C)sc2c1N(C(=O)CCl)c1cc(Cl)ccc1S2` the AC50 [7] was 2.22 µM (active), the AC50 [4] was 3.1 µM (active) and the EC50 (Protein RecA) was 0.506 µM (active).

For `CC1=C(C(=O)OCc2ccccc2)C(/C=C/c2ccccc2)N2C(=O)CCSC2=N1` (configuration not stated), the IC50 [1] was > 47.1 µM (inactive) and the EC50 [2] was > 53 µM (inactive).

With `Cc1c(C=O)c2ccccn2c1C(=O)c1ccc(Cl)c([N+](=O)[O-])c1` the IC50 (H9c2) was > 79 µM (inactive).

In the case of `C=CCNc1nc(-c2ccc(OC)cc2OC)cs1`, the EC50 [5] is reported as 0.287 µM (active), the EC50 [6] is reported as 26.8 µM (active) and the EC50 (H4) is reported as 53.9 µM (active).

From ChEMBL document CHEMBL1201862, “PubChem BioAssay data set” (2004)
